Measured values: ChEMBL document CHEMBL1201861, “Genomics of Drug Sensitity in Cancer screening data, Wellcome Trust Sanger Institute”
Structures can show the parent of a compound that is named as a salt.

What was measured:
Capan-2 = test: cells; type: functional, cell-based, Homo sapiens
Description: SANGER: Inhibition of human Capan-2 cell growth in a cell viability assay.

Detroit 562 = test: cells; type: functional, cell-based, Homo sapiens
Description: SANGER: Inhibition of human Detroit562 cell growth in a cell viability assay.

EHEB = test: cells; type: functional, cell-based, Homo sapiens
Description: SANGER: Inhibition of human EHEB cell growth in a cell viability assay.

GP5d = test: cells; type: functional, cell-based, Homo sapiens
Description: SANGER: Inhibition of human GP5d cell growth in a cell viability assay.

HCC1599 = test: cells; type: functional, cell-based, Homo sapiens
Description: SANGER: Inhibition of human HCC1599 cell growth in a cell viability assay.

HCC1806 = test: cells; type: functional, cell-based, Homo sapiens
Description: SANGER: Inhibition of human HCC1806 cell growth in a cell viability assay.

HCC38 = test: cells; type: functional, cell-based, Homo sapiens
Description: SANGER: Inhibition of human HCC38 cell growth in a cell viability assay.

HCT-15 = test: cells; type: functional, cell-based, Homo sapiens
Description: SANGER: Inhibition of human HCT-15 cell growth in a cell viability assay.

HT-1376 = test: cells; type: functional, cell-based, Homo sapiens
Description: SANGER: Inhibition of human HT-1376 cell growth in a cell viability assay.

IM-9 = test: SANGER: Inhibition of human IM-9 cell growth in a cell viability assay.; type: functional, cell-based
IST-SL2 = test: cells; type: functional, cell-based, Homo sapiens
Description: SANGER: Inhibition of human IST-SL2 cell growth in a cell viability assay.

K052 = test: cells; type: functional, cell-based, Homo sapiens
Description: SANGER: Inhibition of human K052 cell growth in a cell viability assay.

KOSC-2 = test: cells; type: functional, cell-based, Homo sapiens
Description: SANGER: Inhibition of human KOSC-2 cell growth in a cell viability assay.

KP-N-YN = test: cells; type: functional, cell-based, Homo sapiens
Description: SANGER: Inhibition of human KP-N-YN cell growth in a cell viability assay.

KYSE-150 cell line = test: cells; type: functional, cell-based, Homo sapiens
Description: SANGER: Inhibition of human KYSE-150 cell growth in a cell viability assay.

LP-1 = test: cells; type: functional, cell-based, Homo sapiens
Description: SANGER: Inhibition of human LP-1 cell growth in a cell viability assay.

M059J = test: cells; type: functional, cell-based, Homo sapiens
Description: SANGER: Inhibition of human M059J cell growth in a cell viability assay.

MDA-MB-134-VI = test: cells; type: functional, cell-based, Homo sapiens
Description: SANGER: Inhibition of human MDA-MB-134-VI cell growth in a cell viability assay.

ME-180 = test: cells; type: functional, cell-based, Homo sapiens
Description: SANGER: Inhibition of human ME-180 cell growth in a cell viability assay.

MHH-ES-1 = test: cells; type: functional, cell-based, Homo sapiens
Description: SANGER: Inhibition of human MHH-ES-1 cell growth in a cell viability assay.

MIA PaCa-2 = test: cells; type: functional, cell-based, Homo sapiens
Description: SANGER: Inhibition of human MIA-PaCa-2 cell growth in a cell viability assay.

NCI-H1792 = test: cells; type: functional, cell-based, Homo sapiens
Description: SANGER: Inhibition of human NCI-H1792 cell growth in a cell viability assay.

NCI-H1993 = test: cells; type: functional, cell-based, Homo sapiens
Description: SANGER: Inhibition of human NCI-H1993 cell growth in a cell viability assay.

NCI-H358 = test: cells; type: functional, cell-based, Homo sapiens
Description: SANGER: Inhibition of human NCI-H358 cell growth in a cell viability assay.

NCI-H522 = test: cells; type: functional, cell-based, Homo sapiens
Description: SANGER: Inhibition of human NCI-H522 cell growth in a cell viability assay.

NCI-H64 = test: cells; type: functional, cell-based, Homo sapiens
Description: SANGER: Inhibition of human NCI-H64 cell growth in a cell viability assay.

NCI-H719 = test: cells; type: functional, cell-based, Homo sapiens
Description: SANGER: Inhibition of human NCI-H719 cell growth in a cell viability assay.

OAW-28 = test: cells; type: functional, cell-based, Homo sapiens
Description: SANGER: Inhibition of human OAW-28 cell growth in a cell viability assay.

RMG-I = test: cells; type: functional, cell-based, Homo sapiens
Description: SANGER: Inhibition of human RMG-I cell growth in a cell viability assay.

RPMI-2650 = test: cells; type: functional, cell-based, Homo sapiens
Description: SANGER: Inhibition of human RPMI-2650 cell growth in a cell viability assay.

SJRH30 = test: cells; type: functional, cell-based, Homo sapiens
Description: SANGER: Inhibition of human SJRH30 cell growth in a cell viability assay.

SK-HEP1 = test: cells; type: functional, cell-based, Homo sapiens, SK-HEP-1
Description: SANGER: Inhibition of human SK-HEP-1 cell growth in a cell viability assay.

SK-OV-3 = test: cells; type: functional, cell-based, Homo sapiens
Description: SANGER: Inhibition of human SK-OV-3 cell growth in a cell viability assay.

A 172 = test: cells; type: functional, cell-based, Homo sapiens
Description: SANGER: Inhibition of human A172 cell growth in a cell viability assay.

ABC-1 = test: cells; type: functional, cell-based, Homo sapiens
Description: SANGER: Inhibition of human ABC-1 cell growth in a cell viability assay.

BFTC-905 = test: cells; type: functional, cell-based, Homo sapiens
Description: SANGER: Inhibition of human BFTC-905 cell growth in a cell viability assay.

BL-70 = test: SANGER: Inhibition of human BL-70 cell growth in a cell viability assay.; type: functional, cell-based
CAKI-1 = test: cells; type: functional, cell-based, Homo sapiens
Description: SANGER: Inhibition of human CAKI-1 cell growth in a cell viability assay.

CAL-12T = test: cells; type: functional, cell-based, Homo sapiens
Description: SANGER: Inhibition of human CAL-12T cell growth in a cell viability assay.

CAL-51 = test: cells; type: functional, cell-based, Homo sapiens
Description: SANGER: Inhibition of human CAL-51 cell growth in a cell viability assay.

CAL-85-1 = test: cells; type: functional, cell-based, Homo sapiens
Description: SANGER: Inhibition of human CAL-85-1 cell growth in a cell viability assay.

U-698-M = test: cells; type: functional, cell-based, Homo sapiens
Description: SANGER: Inhibition of human U-698-M cell growth in a cell viability assay.

U-251 = test: cells; type: functional, cell-based, Homo sapiens
Description: SANGER: Inhibition of human U251 cell growth in a cell viability assay.

UACC-893 = test: cells; type: functional, cell-based, Homo sapiens
Description: SANGER: Inhibition of human UACC-893 cell growth in a cell viability assay.

CHP-212 = test: cells; type: functional, cell-based, Homo sapiens
Description: SANGER: Inhibition of human CHP-212 cell growth in a cell viability assay.

## COC1=CC(c2cc3ccccc3[nH]2)=N/C1=C\c1[nH]c(C)cc1C [OBATOCLAX MESYLATE]
Capan-2; Homo sapiens, Capan-2
  IC50: 0.666 µM
Detroit 562; Homo sapiens, Detroit 562
  IC50: 0.489 µM
EHEB; Homo sapiens, EHEB
  IC50: 0.823 µM
GP5d; Homo sapiens, GP5d
  IC50: 0.225 µM
HCC1599; Homo sapiens, HCC1599
  IC50: 0.5 µM
HCC1806; Homo sapiens, HCC1806
  IC50: 0.124 µM
HCC38; Homo sapiens, HCC38
  IC50: 2.38 µM
HCT-15; Homo sapiens, HCT-15
  IC50: 0.225 µM
HT-1376; Homo sapiens, HT-1376
  IC50: 0.127 µM
IM-9; Homo sapiens, IM-9
  IC50: 0.33 µM
IST-SL2; Homo sapiens, IST-SL2
  IC50: 0.0947 µM
K052; Homo sapiens, K052
  IC50: 0.94 µM
KOSC-2; Homo sapiens, KOSC-2
  IC50: 9.63 µM
KP-N-YN; Homo sapiens, KP-N-YN
  IC50: > 16 µM
KYSE-150 cell line; Homo sapiens, KYSE-150
  IC50: 0.0401 µM
LP-1; Homo sapiens, LP-1
  IC50: 0.213 µM
M059J; Homo sapiens, M059J
  IC50: 1.36 µM
MDA-MB-134-VI; Homo sapiens, MDA-MB-134-VI
  IC50: 4.03 µM
ME-180; Homo sapiens, ME-180
  IC50: 1.44 µM
MHH-ES-1; Homo sapiens, MHH-ES-1
  IC50: 0.186 µM
MIA PaCa-2; Homo sapiens, MIA PaCa-2
  IC50: 0.233 µM
NCI-H1792; Homo sapiens, NCI-H1792
  IC50: 0.377 µM
NCI-H1993; Homo sapiens, NCI-H1993
  IC50: > 16 µM
NCI-H358; Homo sapiens, NCI-H358
  IC50: 0.0788 µM
NCI-H522; Homo sapiens, NCI-H522
  IC50: 0.181 µM
NCI-H64; Homo sapiens, NCI-H64
  IC50: 0.0384 µM
NCI-H719; Homo sapiens, NCI-H719
  IC50: 4.15 µM
OAW-28; Homo sapiens, OAW-28
  IC50: 0.202 µM
RMG-I; Homo sapiens, RMG-I
  IC50: 0.782 µM
RPMI-2650; Homo sapiens, RPMI-2650
  IC50: 0.023 µM
SJRH30; Homo sapiens, SJRH30
  IC50: 0.321 µM
SK-HEP1; Homo sapiens, SK-HEP1
  IC50: 0.196 µM
SK-OV-3; Homo sapiens, SK-OV-3
  IC50: 0.524 µM
A 172; Homo sapiens, A 172
  IC50: 0.887 µM
ABC-1; Homo sapiens, ABC-1
  IC50: 0.505 µM
BFTC-905; Homo sapiens, BFTC-905
  IC50: 0.0791 µM
BL-70; Homo sapiens, BL-70
  IC50: 0.063 µM
CAKI-1; Homo sapiens, CAKI-1
  IC50: 1.72 µM
CAL-12T; Homo sapiens, CAL-12T
  IC50: < 0.0625 µM
CAL-51; Homo sapiens, CAL-51
  IC50: 40 nM
CAL-85-1; Homo sapiens, CAL-85-1
  IC50: 0.0183 µM
U-698-M; Homo sapiens, U-698-M
  IC50: 0.0941 µM
U-251; Homo sapiens, U-251
  IC50: 0.335 µM
UACC-893; Homo sapiens, UACC-893
  IC50: 2.86 µM
CHP-212; Homo sapiens, CHP-212
  IC50: 0.081 µM

## BLEOMYCIN
Capan-2; capan-2
  IC50: 24.2 µM
Detroit 562; detroit 562
  IC50: 11.9 µM
EHEB; eheb
  IC50: 1.61 µM
GP5d; gp5d
  IC50: 15.6 µM
HCC1599; hcc1599
  IC50: 3.37 µM
HCC1806; hcc1806
  IC50: 0.00854 µM
HCC38; hcc38
  IC50: 0.0312 µM
HCT-15; hct-15
  IC50: 0.0951 µM
HT-1376; ht-1376
  IC50: 9.74 µM
IM-9; im-9
  IC50: 4.13 µM
IST-SL2; ist-sl2
  IC50: 0.000173 µM
K052; k052
  IC50: 482 µM
KOSC-2; kosc-2
  IC50: 319 µM
KP-N-YN; kp-n-yn
  IC50: 26.3 µM
KYSE-150 cell line; kyse-150
  IC50: 0.00265 µM
LP-1; lp-1
  IC50: 307 µM
M059J; m059j
  IC50: 3.77 µM
MDA-MB-134-VI; mda-mb-134-vi
  IC50: 340 µM
ME-180; me-180
  IC50: 40.9 µM
MHH-ES-1; mhh-es-1
  IC50: 0.0436 µM
MIA PaCa-2; mia paca-2
  IC50: 0.111 µM
NCI-H1792; nci-h1792
  IC50: 2.57 µM
NCI-H1993; nci-h1993
  IC50: 646 µM
NCI-H358; nci-h358
  IC50: 0.373 µM
NCI-H522; nci-h522
  IC50: 0.426 µM
NCI-H64; nci-h64
  IC50: 0.641 µM
NCI-H719; nci-h719
  IC50: 293 µM
OAW-28; oaw-28
  IC50: 9.21 µM
RMG-I; rmg-i
  IC50: 0.000132 µM
RPMI-2650; rpmi-2650
  IC50: 0.633 µM
SJRH30; sjrh30
  IC50: 0.414 µM
SK-HEP1; sk-hep-1
  IC50: 0.415 µM
SK-OV-3; sk-ov-3
  IC50: 4.88 µM
A 172; a 172
  IC50: 39.7 µM
ABC-1; abc-1
  IC50: 19.7 µM
BFTC-905; bftc-905
  IC50: 2.32 µM
BL-70; bl-70
  IC50: 1650 µM
CAKI-1; caki-1
  IC50: 0.62 µM
CAL-12T; cal-12t
  IC50: 0.259 µM
CAL-51; cal-51
  IC50: 0.099 nM
CAL-85-1; cal-85-1
  IC50: 0.000178 µM
U-698-M; u-698-m
  IC50: 13 µM
U-251; u-251
  IC50: 4.36 µM
UACC-893; uacc-893
  IC50: 130 µM
CHP-212; chp-212
  IC50: 0.148 µM
